In ChEMBL document CHEMBL3526086, “Identification of the oxidative and conjugative enzymes involved in the biotransformation of brivanib” (Drug Metab Dispos, 2012):

Experiments:
Type in all cases: ADME
Cytochrome P450 2C8 [1] = biological target: T1, Cytochrome P450 2C8 (Homo sapiens, UniProt P10632); assay: Drug metabolism in human liver microsomes assessed as 3 uM montekulast-mediated inhibition of CYP2C8-mediated (R)-1-(4-(4-fluoro-2-(hydroxymethyl)-1H-indol-5-yloxy)-5-methylpyrrolo[1,2-f][1,2,4]triazin-6-yloxy)propan-2-ol formation at 2 and 20 uM for 30 mins by LC/MS analysis; conditions: 0.5 h
T1 sequence (P10632 whole entry): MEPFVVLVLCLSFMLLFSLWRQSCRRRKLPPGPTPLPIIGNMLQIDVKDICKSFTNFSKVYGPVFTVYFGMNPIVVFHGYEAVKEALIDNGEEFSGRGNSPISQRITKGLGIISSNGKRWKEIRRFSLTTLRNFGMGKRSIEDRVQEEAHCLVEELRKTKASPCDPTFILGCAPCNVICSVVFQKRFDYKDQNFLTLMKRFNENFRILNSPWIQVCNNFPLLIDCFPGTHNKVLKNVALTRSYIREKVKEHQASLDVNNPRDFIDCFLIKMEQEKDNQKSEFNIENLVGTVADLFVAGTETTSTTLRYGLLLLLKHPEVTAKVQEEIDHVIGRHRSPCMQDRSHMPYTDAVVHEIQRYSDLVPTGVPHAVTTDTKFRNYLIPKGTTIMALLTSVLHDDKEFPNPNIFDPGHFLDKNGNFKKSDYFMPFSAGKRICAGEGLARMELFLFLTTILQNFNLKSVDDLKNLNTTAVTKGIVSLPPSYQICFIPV

Cytochrome P450 2D6 = Cytochrome P450 2D6 (Homo sapiens, UniProt P10635); assay: Drug metabolism in human liver microsomes assessed as 1 uM quinidine-mediated inhibition of CYP2D6-mediated(R)-1-(4-(4-fluoro-2-(hydroxymethyl)-1H-indol-5-yloxy)-5-methylpyrrolo[1,2-f][1,2,4]triazin-6-yloxy)propan-2-ol formation at 2 and 20 uM for 30 mins by LC/MS analysis; conditions: 0.5 h
Cytochrome P450 2D6, sequence (P10635 whole entry): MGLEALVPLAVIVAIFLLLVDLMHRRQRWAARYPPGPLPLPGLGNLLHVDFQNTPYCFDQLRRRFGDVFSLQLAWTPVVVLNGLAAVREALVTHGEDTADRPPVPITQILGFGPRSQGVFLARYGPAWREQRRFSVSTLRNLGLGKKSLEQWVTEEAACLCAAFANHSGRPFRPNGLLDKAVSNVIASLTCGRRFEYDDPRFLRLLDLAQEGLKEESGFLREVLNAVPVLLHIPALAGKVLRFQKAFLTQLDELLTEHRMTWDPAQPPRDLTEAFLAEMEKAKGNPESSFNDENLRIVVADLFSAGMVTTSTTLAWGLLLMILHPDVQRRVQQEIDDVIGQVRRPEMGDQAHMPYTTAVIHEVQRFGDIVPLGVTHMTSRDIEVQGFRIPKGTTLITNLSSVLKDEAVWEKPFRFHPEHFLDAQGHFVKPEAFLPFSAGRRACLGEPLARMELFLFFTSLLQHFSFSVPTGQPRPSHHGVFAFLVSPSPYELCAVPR

Cytochrome P450 1B1 = Cytochrome P450 1B1 (Homo sapiens, UniProt Q16678); assay: Drug metabolism assessed as human CYP1B1-mediated (R)-1-(4-(4-fluoro-2-(hydroxymethyl)-1H-indol-5-yloxy)-5-methylpyrrolo[1,2-f][1,2,4]triazin-6-yloxy)propan-2-ol formation at 2 and 20 uM for 20 mins by LC/MS analysis in presence of NADPH; conditions: recombinant enzyme
Cytochrome P450 1B1, sequence (Q16678 whole entry): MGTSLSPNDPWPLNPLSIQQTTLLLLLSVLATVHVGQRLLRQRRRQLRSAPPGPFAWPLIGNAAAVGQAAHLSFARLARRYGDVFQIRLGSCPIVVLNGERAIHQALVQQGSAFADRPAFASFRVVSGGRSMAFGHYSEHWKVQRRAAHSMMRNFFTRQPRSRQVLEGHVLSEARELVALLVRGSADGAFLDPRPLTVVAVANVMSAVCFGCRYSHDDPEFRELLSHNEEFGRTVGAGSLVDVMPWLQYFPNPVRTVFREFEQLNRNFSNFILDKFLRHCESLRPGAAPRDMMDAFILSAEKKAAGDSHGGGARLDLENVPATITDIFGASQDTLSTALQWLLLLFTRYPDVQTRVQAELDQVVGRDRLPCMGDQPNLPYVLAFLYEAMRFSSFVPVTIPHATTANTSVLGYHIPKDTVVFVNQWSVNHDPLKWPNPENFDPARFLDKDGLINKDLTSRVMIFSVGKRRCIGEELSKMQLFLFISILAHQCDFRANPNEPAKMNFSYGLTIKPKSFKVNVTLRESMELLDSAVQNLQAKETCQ

Cytochrome P450 2C19 = Cytochrome P450 2C19 (Homo sapiens, UniProt P33261); assay: Drug metabolism assessed as human CYP2C19-mediated (R)-1-(4-(4-fluoro-2-(hydroxymethyl)-1H-indol-5-yloxy)-5-methylpyrrolo[1,2-f][1,2,4]triazin-6-yloxy)propan-2-ol formation at 2 and 20 uM for 20 mins by LC/MS analysis in presence of NADPH; conditions: recombinant enzyme
Cytochrome P450 2C19, sequence (P33261 whole entry): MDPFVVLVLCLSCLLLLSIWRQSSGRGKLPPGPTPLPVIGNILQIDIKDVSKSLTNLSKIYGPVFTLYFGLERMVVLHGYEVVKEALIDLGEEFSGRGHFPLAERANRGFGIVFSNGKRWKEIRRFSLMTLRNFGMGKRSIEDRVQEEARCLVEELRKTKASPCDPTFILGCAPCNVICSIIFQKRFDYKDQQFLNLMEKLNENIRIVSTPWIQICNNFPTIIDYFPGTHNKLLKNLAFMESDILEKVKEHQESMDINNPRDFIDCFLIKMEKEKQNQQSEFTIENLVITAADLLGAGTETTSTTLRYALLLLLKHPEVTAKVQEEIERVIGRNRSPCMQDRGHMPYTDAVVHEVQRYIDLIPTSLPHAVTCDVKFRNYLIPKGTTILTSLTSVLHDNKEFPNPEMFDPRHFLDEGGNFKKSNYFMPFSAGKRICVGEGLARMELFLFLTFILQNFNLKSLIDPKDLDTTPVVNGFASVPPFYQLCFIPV

Cytochrome P450 2C8 [2] = biological target: T1, Cytochrome P450 2C8; assay: Drug metabolism assessed as human CYP2C8-mediated (R)-1-(4-(4-fluoro-2-(hydroxymethyl)-1H-indol-5-yloxy)-5-methylpyrrolo[1,2-f][1,2,4]triazin-6-yloxy)propan-2-ol formation at 2 and 20 uM for 20 mins by LC/MS analysis in presence of NADPH; conditions: recombinant enzyme
Cytochrome P450 2A6 = biological target: T2, Cytochrome P450 2A6 (Homo sapiens, UniProt P11509); assay: Drug metabolism assessed as human CYP2A6-mediated (R)-1-(4-(4-fluoro-2-(hydroxymethyl)-1H-indol-5-yloxy)-5-methylpyrrolo[1,2-f][1,2,4]triazin-6-yloxy)propan-2-ol formation at 2 and 20 uM for 20 mins by LC/MS analysis in presence of NADPH; conditions: recombinant enzyme
T2 sequence (P11509 whole entry): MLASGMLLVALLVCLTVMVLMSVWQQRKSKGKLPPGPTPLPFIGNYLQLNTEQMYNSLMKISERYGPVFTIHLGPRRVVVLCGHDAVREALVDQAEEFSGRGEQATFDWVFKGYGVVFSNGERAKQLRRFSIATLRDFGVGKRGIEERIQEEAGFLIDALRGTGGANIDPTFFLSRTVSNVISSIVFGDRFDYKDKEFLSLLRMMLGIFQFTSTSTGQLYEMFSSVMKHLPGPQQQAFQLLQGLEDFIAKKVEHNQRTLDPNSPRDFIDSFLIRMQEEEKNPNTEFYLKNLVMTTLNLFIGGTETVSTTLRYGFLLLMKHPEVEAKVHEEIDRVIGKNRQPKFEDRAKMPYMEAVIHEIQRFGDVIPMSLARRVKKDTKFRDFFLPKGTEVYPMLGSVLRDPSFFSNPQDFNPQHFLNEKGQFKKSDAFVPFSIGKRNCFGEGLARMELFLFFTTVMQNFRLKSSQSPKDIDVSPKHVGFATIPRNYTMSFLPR

Cytochrome P450 1A1 = Cytochrome P450 1A1 (Homo sapiens, UniProt P04798); assay: Drug metabolism assessed as human CYP1A1-mediated (R)-1-(4-(4-fluoro-2-(hydroxymethyl)-1H-indol-5-yloxy)-5-methylpyrrolo[1,2-f][1,2,4]triazin-6-yloxy)propan-2-ol formation at 2 and 20 uM for 20 mins by LC/MS analysis in presence of NADPH; conditions: recombinant enzyme
Cytochrome P450 1A1, sequence (P04798 whole entry): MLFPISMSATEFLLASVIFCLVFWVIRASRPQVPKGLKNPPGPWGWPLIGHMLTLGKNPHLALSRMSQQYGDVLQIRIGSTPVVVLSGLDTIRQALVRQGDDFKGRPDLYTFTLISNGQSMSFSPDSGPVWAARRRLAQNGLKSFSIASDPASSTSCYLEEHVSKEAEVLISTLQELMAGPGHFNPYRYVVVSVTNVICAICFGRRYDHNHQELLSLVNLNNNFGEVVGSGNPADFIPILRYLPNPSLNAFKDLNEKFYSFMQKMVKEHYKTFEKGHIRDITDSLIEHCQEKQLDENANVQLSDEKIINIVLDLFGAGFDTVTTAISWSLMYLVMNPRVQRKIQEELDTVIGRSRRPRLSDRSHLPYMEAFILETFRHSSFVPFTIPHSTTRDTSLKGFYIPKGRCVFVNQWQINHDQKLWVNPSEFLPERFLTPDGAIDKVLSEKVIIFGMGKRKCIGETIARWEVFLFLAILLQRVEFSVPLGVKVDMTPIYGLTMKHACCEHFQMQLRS

Liver microsome = assay: Drug metabolism in human liver microsomes assessed as (R)-1-(4-(4-fluoro-2-(hydroxymethyl)-1H-indol-5-yloxy)-5-methylpyrrolo[1,2-f][1,2,4]triazin-6-yloxy)propan-2-ol formation at 2 and 20 uM for 30 mins by LC/MS analysis in presence of antibody for CYP1A2; conditions: 0.5 h
Sulfotransferase 1A3 = Sulfotransferase 1A3 (Homo sapiens, UniProt P0DMM9); assay: Drug metabolism assessed as human SULT1A3-mediated (R)-1-(4-(4-fluoro-2-methyl-1H-indol-5-yloxy)-5-methylpyrrolo[1,2-f][1,2,4]triazin-6-yloxy)propane-2-sulfonic acid formation at 2 and 20 uM for 30 mins by LC/MS analysis in presence of PAPS; conditions: 0.5 h
Sulfotransferase 1A3, sequence (P0DMM9 whole entry): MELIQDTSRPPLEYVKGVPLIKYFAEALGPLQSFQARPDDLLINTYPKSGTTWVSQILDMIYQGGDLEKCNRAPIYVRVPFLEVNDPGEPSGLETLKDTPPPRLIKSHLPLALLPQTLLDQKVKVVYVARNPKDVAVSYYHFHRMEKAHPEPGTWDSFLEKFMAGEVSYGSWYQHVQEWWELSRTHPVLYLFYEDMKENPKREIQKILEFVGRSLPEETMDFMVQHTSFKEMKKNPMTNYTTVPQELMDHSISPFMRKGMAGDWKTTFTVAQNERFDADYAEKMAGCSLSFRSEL

Cytochrome P450 2E1 = Cytochrome P450 2E1 (Homo sapiens, UniProt P05181); assay: Drug metabolism in human liver microsomes assessed as monoclonal antibody-mediated inhibition of CYP2E1-mediated (R)-1-(4-(4-fluoro-2-(hydroxymethyl)-1H-indol-5-yloxy)-5-methylpyrrolo[1,2-f][1,2,4]triazin-6-yloxy)propan-2-ol formation at 2 and 20 uM for 30 mins by LC/MS analysis; conditions: 0.5 h
Cytochrome P450 2E1, sequence (P05181 whole entry): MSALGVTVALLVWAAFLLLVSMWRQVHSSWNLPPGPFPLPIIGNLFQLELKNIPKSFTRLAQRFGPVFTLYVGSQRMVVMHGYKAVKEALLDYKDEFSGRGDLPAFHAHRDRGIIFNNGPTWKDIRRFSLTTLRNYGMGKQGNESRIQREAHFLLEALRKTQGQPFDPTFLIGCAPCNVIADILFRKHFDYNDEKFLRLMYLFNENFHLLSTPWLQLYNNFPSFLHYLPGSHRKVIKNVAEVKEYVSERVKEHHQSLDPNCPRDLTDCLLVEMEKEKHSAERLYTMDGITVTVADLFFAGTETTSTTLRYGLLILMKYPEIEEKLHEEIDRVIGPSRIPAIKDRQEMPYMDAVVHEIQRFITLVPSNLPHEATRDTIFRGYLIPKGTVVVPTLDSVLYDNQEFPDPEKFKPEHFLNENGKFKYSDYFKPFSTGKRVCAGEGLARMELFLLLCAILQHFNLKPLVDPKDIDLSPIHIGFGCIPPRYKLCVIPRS

SMILES: Cc1cc2c(F)c(Oc3ncnn4cc(OC[C@@H](C)O)c(C)c34)ccc2[nH]1 [BRIVANIB]
- Drug metabolism (Cytochrome P450 2C8 [1]): metabolite_detected
- Drug metabolism (Cytochrome P450 2D6): metabolite_detected
- Drug metabolism (Cytochrome P450 1B1): metabolite_detected
- Drug metabolism (Cytochrome P450 2C19): metabolite_detected
- Drug metabolism (Cytochrome P450 2C8 [2]): metabolite_detected
- Drug metabolism (Cytochrome P450 2A6): metabolite_detected
- Drug metabolism (Cytochrome P450 1A1): metabolite_detected
- Drug metabolism (Liver microsome): metabolite_not_detected
- Drug metabolism (Sulfotransferase 1A3): metabolite_detected
- Drug metabolism (Cytochrome P450 2E1): metabolite_detected
